pEC50: −log10 of the molar value.
The molecules below were run on C57BL/6J mice (assay: Intra peritoneal glucose tolerance test (IPGTT)). Conditions: Mus musculus, 2 h; 30 mg/kg oral gavage 30 min before 2g/kg glucose intra peritoneally; overnight fasted male C57BL/6J mice; incremental AUC of glucose excursion vs vehicle; read-out: % reduction IPGTT at 30mg/kg.
Format: in vivo
Description: 8-10 week old male C57BL/6J mice (Harlan) were maintained on regular chow diet from Harlan (2018 Teklad Global). On the day before the experiment mice were fasted overnight, then randomized into groups (n=10-15) to receive the tested GPR120 agonist at doses ranging from 100mg/kg or the vehicle (1% CMC, 2% TWEEN 80). Compounds were delivered orally via gavage at 10mL/kg. Blood glucose levels were measured by glucometer (Ascensia Elite XL, Bayer) at time -30 minutes before administration of compound. Blood glucose was measured again after 30 minutes (at time 0), and then the mice were dosed intra peritoneally with 2g/kg glucose at 10mL/kg. Blood glucose measurements were taken 20, 40, 60, 90 and 120 minutes after glucose administration, by glucometer (Ascensia Elite XL, Bayer).
Glucose levels were plotted against time, and the incremental area under the curve (AUC) of the glucose excursion was determined from time 0 using Graphpad Prism 5.01. Outliers were excluded using Tukey's box plot outlier test, and statistical significance of differences in AUC of compound treatment compared to vehicle was determined by non-parametric Kruskal-Wallis test with Dunn's post test.
The compounds were tested at 30 mg/kg and the levels of blood glucose were determined in the presence and absence of the tested compounds. The percentage of glucose reduction is reported. The tested compounds were selected as Examples from the exemplified compounds. […]

| Compound | inhibition in vivo at 30 mg/kg |
| --- | --- |
| CC1(C)Cc2cc(F)cc(COc3ccc(C4CC4C(=O)O)cc3)c2O1 (racemic) [Example 131 (racemic), 2-(4-((5-fluoro-2,2-dimethyl-2,3-dihydrobenzofuran-7-yl)methoxy)phenyl) cyclopropanecarboxylic acid] | 23.1% |
| CC1(C)Cc2cc(Cl)cc(COc3ccc(CCC(=O)O)c4c3CCC4)c2O1 [Example 64, 3-(7-((5-chloro-2,2-dimethyl-2,3-dihydrobenzofuran-7-yl)methoxy)-2,3-dihydro-1H-inden-4-yl)propanoic acid] | 24.9% |

What follows are molecules tested against T1, human GPR120 (Homo sapiens, UniProt Q5NUL3) (assay: Intracellular Ca2+ assay in human GPR120 stable cell line (FLIPR Calcium 4 dye, Flexstation)). Conditions: % activity at 2.5 µM compared to the maximal activity of the compound of Example 25 at 2.5 µM (=100%); HEK293 cells co-expressing Gqi5.
T1 construct: host or cells: HEK293 cells co-expressing Gqi5
T1 sequence (Q5NUL3 1-361): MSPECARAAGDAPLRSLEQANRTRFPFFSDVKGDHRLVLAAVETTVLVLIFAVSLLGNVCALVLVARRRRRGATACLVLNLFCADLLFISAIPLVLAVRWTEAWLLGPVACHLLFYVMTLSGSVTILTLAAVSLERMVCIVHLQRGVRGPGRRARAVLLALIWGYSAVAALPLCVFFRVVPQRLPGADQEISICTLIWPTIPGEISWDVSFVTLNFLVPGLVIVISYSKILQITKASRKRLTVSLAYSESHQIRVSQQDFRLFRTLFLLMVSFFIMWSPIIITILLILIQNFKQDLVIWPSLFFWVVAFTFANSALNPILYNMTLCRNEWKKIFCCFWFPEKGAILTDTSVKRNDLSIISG
Format: cell-based

| Compound | % Activity (Ex. 25 Reference Compound) |
| --- | --- |
| CC1(C)Cc2cc(F)cc(COc3ccc(C4CC4C(=O)O)cc3)c2O1 (stereo not shown) [Example 131B, 2-(4-((5-fluoro-2,2-dimethyl-2,3-dihydrobenzofuran-7-yl)methoxy)phenyl) cyclopropanecarboxylic acid] | 105.8% |
| CC1(C)Cc2cc(F)cc(COc3c(F)cc(CC4CC4C(=O)O)cc3F)c2O1 (single isomer, unassigned) [Example 184B, 2-(3,5-difluoro-4-((5-fluoro-2,2-dimethyl-2,3-dihydrobenzofuran-7-yl)methoxy)benzyl)cyclopropanecarboxylic acid] | 130.66% |

Same assay, conditions: HEK293, % activity at 2.5 µM compared to the maximal activity of the compound of Example 25 at 2.5 µM (=100%); HEK293 cells co-expressing Gqi5; read-out: % Activity (Ex. 25 Reference Compound)

| Compound | activity at 2.5 µM |
| --- | --- |
| COc1cc(CCC(=O)O)c(Br)cc1OCc1cc(F)cc2c1OC(C)(C)C2 [Example 56, 3-(2-bromo-4-((5-fluoro-2,2-dimethyl-2,3-dihydrobenzofuran-7-yl)methoxy)-5-methoxyphenyl)propanoic acid] | 109% |
| CC1(C)Cc2cc(F)cc(COc3ccc4c(CC(=O)O)coc4c3)c2O1 [Example 262, 2-(6-((5-fluoro-2,2-dimethyl-2,3-dihydrobenzofuran-7-yl)methoxy)benzofuran-3-yl)acetic acid] | 137% |
| Cc1cc(OCC(=O)O)ccc1OCc1cc(Cl)cc2c1OC(C)(C)C2 [Example 103, 2-(4-((5-chloro-2,2-dimethyl-2,3-dihydrobenzofuran-7-yl)methoxy)-3-methylphenoxy)acetic acid] | 99% |
| COc1cc(CCC(=O)O)ccc1OCc1cc(F)cc2c1OC(C)(C)C2 [Example 173, 3-(4-((5-fluoro-2,2-dimethyl-2,3-dihydrobenzofuran-7-yl)methoxy)-3-methoxyphenyl)propanoic acid] | 159% |
| CC1(C)Cc2cc(F)cc(COc3ccc(CCC(=O)O)c(OC(F)(F)F)c3)c2O1 [Example 136, 3-(4-((5-fluoro-2,2-dimethyl-2,3-dihydrobenzofuran-7-yl)methoxy)-2-(trifluoromethoxy)phenyl)propanoic acid] | 141% |
| CC(Cc1ccc(OCc2cc(-c3ccc(Cl)cc3)cc3c2OC(C)(C)C3)cc1)C(=O)O (stereo not shown) [Example 82, 3-(4-((5-(4-chlorophenyl)-2,2-dimethyl-2,3-dihydrobenzofuran-7-yl)methoxy)phenyl)-2-methylpropanoic acid] | 24% |
| CC(Cc1ccc(OCc2cc(F)cc3c2OC(C)(C)C3)cc1)C(=O)NO (stereo not shown) [Example 264, 3-(4-((5-fluoro-2,2-dimethyl-2,3-dihydrobenzofuran-7-yl)methoxy)phenyl)-N-hydroxy-2-methylpropanamide] | 110% |
| [2H]C([2H])(Oc1ccc(CC(C)C(=O)O)cc1C(F)(F)F)c1cc(F)cc2c1OC(C)(C)C2 (stereo not shown) [Example 231, 3-(4-(dideuterio(5-fluoro-2,2-dimethyl-2,3-dihydrobenzofuran-7-yl)methoxy)-3-(trifluoromethyl)phenyl)-2-methylpropanoic acid] | 101% |
| CCCc1cc(OCc2cc(Cl)cc3c2OC(C)(C)C3)c(F)cc1CCC(=O)O [Example 73, 3-(4-((5-chloro-2,2-dimethyl-2,3-dihydrobenzofuran-7-yl)methoxy)-5-fluoro-2-propylphenyl)propanoic acid] | 115% |
| Cc1cc(OCc2cc(F)cc3c2OC(C)(C)C3)c(F)cc1CCC(=O)O [Example 214, 3-(5-fluoro-4-((5-fluoro-2,2-dimethyl-2,3-dihydrobenzofuran-7-yl)methoxy)-2-methylphenyl)propanoic acid] | 143% |
| Cc1cc(OCc2cc(F)cc3c2OC(C)(C)C3)c(C)cc1CCC(=O)O [Example 206, 3-(4-((5-fluoro-2,2-dimethyl-2,3-dihydrobenzofuran-7-yl)methoxy)-2,5-dimethylphenyl)propanoic acid] | 111% |
| CC(CC(=O)O)c1cc(F)c(OCc2cc(Cl)cc3c2OC(C)(C)C3)c(F)c1 (stereo not shown) [Example 106, 3-(4-((5-chloro-2,2-dimethyl-2,3-dihydrobenzofuran-7-yl)methoxy)-3,5-difluorophenyl)butanoic acid] | 155% |
| CC1(C)Cc2cc(Cl)cc(COc3ccc4c(c3)CC[C@H]4CC(=O)O)c2O1 [Example 176, (S)-2-(5-((5-chloro-2,2-dimethyl-2,3-dihydrobenzofuran-7-yl)methoxy)-2,3-dihydro-1H-inden-1-yl)acetic acid] | 138% |
| CC1(C)Cc2cc(Cl)cc(COc3ccc(CCC(=O)O)c(-c4ccccc4)c3)c2O1 [Example 71, 3-(5-((5-chloro-2,2-dimethyl-2,3-dihydrobenzofuran-7-yl)methoxy)-[1,1'-biphenyl]-2-yl)propanoic acid] | 134% |
| CCc1cc(OCc2cc(F)cc3c2OC(C)(C)C3)c(F)cc1CCC(=O)O [Example 220, 3-(2-ethyl-5-fluoro-4-((5-fluoro-2,2-dimethyl-2,3-dihydrobenzofuran-7-yl)methoxy)phenyl)propanoic acid] | 116% |
| CC(Cc1ccc(OCc2cc(Cl)cc3c2OC(C)(C)C3O)cc1)C(=O)O (stereo not shown) [Example 130, 3-(4-((5-chloro-3-hydroxy-2,2-dimethyl-2,3-dihydrobenzofuran-7-yl)methoxy)phenyl)-2-methylpropanoic acid] | 104% |
| CC1(C)Cc2cc(F)cc(COc3ccc4c(CC(=O)O)cc(=O)oc4c3)c2O1 [Example 263, 2-(7-((5-fluoro-2,2-dimethyl-2,3-dihydrobenzofuran-7-yl)methoxy)-2-oxo-2H-chromen-4-yl)acetic acid] | 5.98% |

Same assay, conditions: HEK293, % activity at 5 µM compared to the maximal activity of GW9508 at 6.7 µM (=100%); HEK293 cells co-expressing Gqi5; read-out: %Activity (GW9508 Reference Compound)

| Compound | activity at 5 µM |
| --- | --- |
| CC(Cc1cc(F)c(OCc2cccc3c2CC(C)(C)O3)c(F)c1)C(=O)O (stereo not shown) [Example 21, 3-(4-((2,2-dimethyl-2,3-dihydrobenzofuran-4-yl)methoxy)-3,5-difluorophenyl)-2-methylpropanoic acid] | 113% |
| CC(Cc1ccc(OCc2cc(Cl)cc3c2OC(C)(C)C3)c(Cl)c1)C(=O)O (stereo not shown) [Example 12, 3-(3-chloro-4-((5-chloro-2,2-dimethyl-2,3-dihydrobenzofuran-7-yl)methoxy)phenyl)-2-methylpropanoic acid] | 116% |
| Cc1cc(COc2c(F)cc(CC(C)C(=O)O)cc2F)c2c(c1)CC(C)(C)O2 (stereo not shown) [Example 5, 3-(3,5-difluoro-4-((2,2,5-trimethyl-2,3-dihydrobenzofuran-7-yl)methoxy)phenyl)-2-methylpropanoic acid] | 149% |
| CC(Cc1cc(F)c(OCc2cccc3c2OC(C)(C)C3)c(F)c1)C(=O)O (stereo not shown) [Example 23, 3-(4-((2,2-dimethyl-2,3-dihydrobenzofuran-7-yl)methoxy)-3,5-difluorophenyl)-2-methylpropanoic acid] | 113% |
| CC1(C)Cc2c(COc3c(F)cc(C4CC4C(=O)O)cc3F)cccc2O1 (stereo not shown) [Example 22, 2-(4-((2,2-dimethyl-2,3-dihydrobenzofuran-4-yl)methoxy)-3,5-difluorophenyl) cyclopropanecarboxylic acid] | 126% |
| CC(Cc1cc(F)c(OCc2cc(Cl)cc3c2OC(C)(C)C3)c(F)c1)C(=O)O (stereo not shown) [Example 38, 3-(4-((5-chloro-2,2-dimethyl-2,3-dihydrobenzofuran-7-yl)methoxy)-3,5-difluorophenyl)-2-methylpropanoic acid] | 83.4% |

Same assay, conditions: eight concentrations from 0.00001 to 20 µM; changes (Max-Min) of fluorescence intensity

| Compound | pEC50 |
| --- | --- |
| COc1cc(CCC(=O)O)ccc1OCc1cc(F)cc2c1OC(C)(C)C2 [Example 173, 3-(4-((5-fluoro-2,2-dimethyl-2,3-dihydrobenzofuran-7-yl)methoxy)-3-methoxyphenyl)propanoic acid] | 5.00 to 6.00 |
| CC(CCc1ccc(OCc2cc(Cl)cc3c2OC(C)(C)C3)cc1)C(=O)O (stereo not shown) [Example 172, 4-(4-((5-chloro-2,2-dimethyl-2,3-dihydrobenzofuran-7-yl)methoxy)phenyl)-2-methylbutanoic acid] | ≥ 6.00 |
| CC(Cc1ccc(OCc2cc(-c3ccc(Cl)cc3)cc3c2OC(C)(C)C3)cc1)C(=O)O (stereo not shown) [Example 82, 3-(4-((5-(4-chlorophenyl)-2,2-dimethyl-2,3-dihydrobenzofuran-7-yl)methoxy)phenyl)-2-methylpropanoic acid] | 5.00 to 6.00 |
| CC(Cc1ccc(OCc2cc(Cl)cc3c2OC(C)(C)C3O)cc1)C(=O)O (stereo not shown) [Example 130, 3-(4-((5-chloro-3-hydroxy-2,2-dimethyl-2,3-dihydrobenzofuran-7-yl)methoxy)phenyl)-2-methylpropanoic acid] | 5.00 to 6.00 |

— patent publication EP2582674B1 (Cymabay Therapeutics, Inc., priority 2010, dated 2011)
